{"source": "patent US9546156B2", "about": "“N-bicyclic aryl,N'-pyrazolyl urea, thiourea, guanidine cyanoguanidine compounds as TrkA kinase inhibitors” (Array BioPharma Inc., priority 2012, dated 2017)", "assay_in_all_cases": "Off-target kinase profiling (KinaseProfiler)", "format_in_all_cases": "biochemical", "settings_in_all_cases": "10 μM, ATP near Km", "key": {"[1]": {"molecular_target": "T1, TAO3 (Homo sapiens, UniProt Q9H2K8)", "T1 construct": "purchased Millipore, Inc. (KinaseProfiler service)", "T1 sequence (Q9H2K8 whole entry)": "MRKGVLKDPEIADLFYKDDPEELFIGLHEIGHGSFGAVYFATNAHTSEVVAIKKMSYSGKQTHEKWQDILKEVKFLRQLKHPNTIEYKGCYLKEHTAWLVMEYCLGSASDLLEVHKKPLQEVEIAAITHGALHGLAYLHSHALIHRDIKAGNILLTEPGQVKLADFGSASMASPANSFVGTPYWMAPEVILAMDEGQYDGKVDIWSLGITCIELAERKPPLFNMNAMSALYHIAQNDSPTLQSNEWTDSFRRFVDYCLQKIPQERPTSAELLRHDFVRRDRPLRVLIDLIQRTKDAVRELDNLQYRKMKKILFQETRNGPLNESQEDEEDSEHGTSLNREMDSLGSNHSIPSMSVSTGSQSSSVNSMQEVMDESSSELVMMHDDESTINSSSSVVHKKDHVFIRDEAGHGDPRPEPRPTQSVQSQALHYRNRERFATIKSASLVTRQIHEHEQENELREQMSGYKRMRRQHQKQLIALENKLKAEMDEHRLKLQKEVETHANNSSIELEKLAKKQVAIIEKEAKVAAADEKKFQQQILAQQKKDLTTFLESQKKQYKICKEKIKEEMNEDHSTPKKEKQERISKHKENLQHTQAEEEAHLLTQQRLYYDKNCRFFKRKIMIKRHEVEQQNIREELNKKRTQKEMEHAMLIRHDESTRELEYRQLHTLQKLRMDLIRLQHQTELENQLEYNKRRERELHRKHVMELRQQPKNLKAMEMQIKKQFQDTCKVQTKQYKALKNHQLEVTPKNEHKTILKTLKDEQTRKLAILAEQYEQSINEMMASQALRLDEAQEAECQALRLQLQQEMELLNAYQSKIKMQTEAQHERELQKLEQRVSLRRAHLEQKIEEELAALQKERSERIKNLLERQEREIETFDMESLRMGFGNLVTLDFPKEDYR", "how_it_was_run": "(§1)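 ATP near Km for every kinase, compound at 10 μM, duplicate determinations; mean POC reported.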"}, "[2]": {"molecular_target": "T2, TAO1 (Homo sapiens, UniProt Q7L7X3)", "T2 construct": "purchased Millipore, Inc. (KinaseProfiler service)", "how_it_was_run": "as §1"}, "[3]": {"molecular_target": "T3, Syk (Homo sapiens, UniProt P43405)", "T3 construct": "purchased Millipore, Inc. (KinaseProfiler service)", "how_it_was_run": "as §1"}, "[4]": {"molecular_target": "T4, MKK7beta (Homo sapiens, UniProt O14733)", "T4 construct": "purchased Millipore, Inc. (KinaseProfiler service)", "how_it_was_run": "as §1"}, "[5]": {"molecular_target": "T5, PKCdelta (Homo sapiens, UniProt Q05655)", "T5 construct": "purchased Millipore, Inc. (KinaseProfiler service)", "how_it_was_run": "as §1"}, "[6]": {"molecular_target": "T6, IR (Homo sapiens, UniProt P06213)", "T6 construct": "purchased Millipore, Inc. (KinaseProfiler service)", "how_it_was_run": "as §1"}, "[7]": {"molecular_target": "T7, MAP3K5 (Homo sapiens, UniProt Q99683)", "T7 construct": "purchased Millipore, Inc. (KinaseProfiler service)", "how_it_was_run": "as §1"}, "[8]": {"molecular_target": "T8, mTOR (Homo sapiens, UniProt P42345)", "T8 construct": "purchased Millipore, Inc. (KinaseProfiler service)", "how_it_was_run": "as §1"}, "[9]": {"molecular_target": "T9, STK33 (Homo sapiens, UniProt Q9BYT3)", "T9 construct": "purchased Millipore, Inc. (KinaseProfiler service)", "how_it_was_run": "as §1"}, "[10]": {"molecular_target": "T10, ROCK-I (Homo sapiens, UniProt Q13464)", "T10 construct": "purchased Millipore, Inc. (KinaseProfiler service)", "how_it_was_run": "as §1"}, "[11]": {"molecular_target": "T11, RIPK2 (Homo sapiens, UniProt O43353)", "T11 construct": "purchased Millipore, Inc. (KinaseProfiler service)", "how_it_was_run": "as §1"}, "[12]": {"molecular_target": "T12, Ros (Homo sapiens, UniProt P08922)", "T12 construct": "purchased Millipore, Inc. (KinaseProfiler service)", "T12 sequence (P08922 28-2347)": "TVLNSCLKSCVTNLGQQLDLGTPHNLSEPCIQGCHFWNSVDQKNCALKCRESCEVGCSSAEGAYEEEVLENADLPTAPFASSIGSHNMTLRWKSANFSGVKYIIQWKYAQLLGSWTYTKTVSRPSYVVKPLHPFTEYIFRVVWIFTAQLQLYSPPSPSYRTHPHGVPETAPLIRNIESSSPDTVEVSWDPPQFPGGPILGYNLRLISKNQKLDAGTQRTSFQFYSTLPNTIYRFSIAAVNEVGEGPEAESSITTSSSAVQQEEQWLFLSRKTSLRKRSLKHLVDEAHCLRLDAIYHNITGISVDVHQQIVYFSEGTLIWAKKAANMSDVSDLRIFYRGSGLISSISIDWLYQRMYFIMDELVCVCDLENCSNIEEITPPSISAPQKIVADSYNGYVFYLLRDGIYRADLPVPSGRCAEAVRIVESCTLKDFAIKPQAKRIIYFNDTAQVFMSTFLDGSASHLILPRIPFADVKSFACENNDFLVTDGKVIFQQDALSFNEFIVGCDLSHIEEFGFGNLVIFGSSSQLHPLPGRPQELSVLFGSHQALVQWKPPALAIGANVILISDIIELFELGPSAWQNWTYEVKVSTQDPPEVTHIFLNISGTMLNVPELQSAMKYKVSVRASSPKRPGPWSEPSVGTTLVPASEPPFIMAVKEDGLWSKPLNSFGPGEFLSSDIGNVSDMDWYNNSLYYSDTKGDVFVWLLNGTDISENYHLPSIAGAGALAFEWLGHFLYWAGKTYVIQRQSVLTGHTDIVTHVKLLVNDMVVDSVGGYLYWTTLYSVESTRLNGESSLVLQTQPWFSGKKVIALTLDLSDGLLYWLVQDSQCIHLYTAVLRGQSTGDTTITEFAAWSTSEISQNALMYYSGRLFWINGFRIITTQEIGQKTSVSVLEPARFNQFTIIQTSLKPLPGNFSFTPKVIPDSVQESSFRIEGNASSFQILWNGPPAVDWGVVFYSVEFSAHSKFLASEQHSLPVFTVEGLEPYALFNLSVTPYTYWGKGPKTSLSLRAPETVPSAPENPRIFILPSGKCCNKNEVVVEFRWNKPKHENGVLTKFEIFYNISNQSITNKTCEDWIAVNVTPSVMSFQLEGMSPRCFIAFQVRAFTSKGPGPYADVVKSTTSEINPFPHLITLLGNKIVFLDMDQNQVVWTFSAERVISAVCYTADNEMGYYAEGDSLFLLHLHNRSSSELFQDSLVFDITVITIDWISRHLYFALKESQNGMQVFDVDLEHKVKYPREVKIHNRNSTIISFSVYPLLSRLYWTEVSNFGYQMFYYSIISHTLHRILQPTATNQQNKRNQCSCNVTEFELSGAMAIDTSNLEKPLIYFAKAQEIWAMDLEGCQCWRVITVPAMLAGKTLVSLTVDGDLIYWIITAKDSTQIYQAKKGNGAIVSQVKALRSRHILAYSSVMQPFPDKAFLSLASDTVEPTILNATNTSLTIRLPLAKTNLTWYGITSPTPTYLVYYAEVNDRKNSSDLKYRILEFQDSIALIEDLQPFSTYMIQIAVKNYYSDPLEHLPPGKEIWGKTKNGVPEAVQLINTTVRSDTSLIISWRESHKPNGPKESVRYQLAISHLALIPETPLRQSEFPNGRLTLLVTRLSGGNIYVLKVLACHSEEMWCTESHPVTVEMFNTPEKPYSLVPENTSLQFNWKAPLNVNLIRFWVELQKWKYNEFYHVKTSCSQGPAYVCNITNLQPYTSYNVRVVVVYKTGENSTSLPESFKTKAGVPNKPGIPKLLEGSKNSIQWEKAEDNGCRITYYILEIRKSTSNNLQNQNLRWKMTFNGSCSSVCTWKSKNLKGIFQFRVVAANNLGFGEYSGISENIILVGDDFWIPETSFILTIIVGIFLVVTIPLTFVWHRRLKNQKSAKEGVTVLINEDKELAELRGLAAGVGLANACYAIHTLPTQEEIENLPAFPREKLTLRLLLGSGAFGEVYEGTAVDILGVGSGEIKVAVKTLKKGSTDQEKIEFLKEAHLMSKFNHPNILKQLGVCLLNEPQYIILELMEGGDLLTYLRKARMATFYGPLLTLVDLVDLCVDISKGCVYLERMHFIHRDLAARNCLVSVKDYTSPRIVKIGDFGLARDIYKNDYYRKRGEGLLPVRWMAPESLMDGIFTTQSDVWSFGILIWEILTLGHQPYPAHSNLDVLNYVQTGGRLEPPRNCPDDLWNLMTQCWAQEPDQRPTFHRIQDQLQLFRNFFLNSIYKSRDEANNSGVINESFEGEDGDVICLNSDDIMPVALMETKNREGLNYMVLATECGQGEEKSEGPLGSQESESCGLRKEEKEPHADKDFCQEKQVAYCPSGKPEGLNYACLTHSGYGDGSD", "how_it_was_run": "as §1"}, "[13]": {"molecular_target": "T13, MELK (Homo sapiens, UniProt Q14680)", "T13 construct": "purchased Millipore, Inc. (KinaseProfiler service)", "how_it_was_run": "as §1"}, "[14]": {"molecular_target": "T14, PTK5 (Homo sapiens, UniProt P42685)", "T14 construct": "purchased Millipore, Inc. (KinaseProfiler service)", "how_it_was_run": "as §1"}, "[15]": {"molecular_target": "T15, EphB4 (Homo sapiens, UniProt P54760)", "T15 construct": "purchased Millipore, Inc. (KinaseProfiler service)", "T15 sequence (P54760 16-987)": "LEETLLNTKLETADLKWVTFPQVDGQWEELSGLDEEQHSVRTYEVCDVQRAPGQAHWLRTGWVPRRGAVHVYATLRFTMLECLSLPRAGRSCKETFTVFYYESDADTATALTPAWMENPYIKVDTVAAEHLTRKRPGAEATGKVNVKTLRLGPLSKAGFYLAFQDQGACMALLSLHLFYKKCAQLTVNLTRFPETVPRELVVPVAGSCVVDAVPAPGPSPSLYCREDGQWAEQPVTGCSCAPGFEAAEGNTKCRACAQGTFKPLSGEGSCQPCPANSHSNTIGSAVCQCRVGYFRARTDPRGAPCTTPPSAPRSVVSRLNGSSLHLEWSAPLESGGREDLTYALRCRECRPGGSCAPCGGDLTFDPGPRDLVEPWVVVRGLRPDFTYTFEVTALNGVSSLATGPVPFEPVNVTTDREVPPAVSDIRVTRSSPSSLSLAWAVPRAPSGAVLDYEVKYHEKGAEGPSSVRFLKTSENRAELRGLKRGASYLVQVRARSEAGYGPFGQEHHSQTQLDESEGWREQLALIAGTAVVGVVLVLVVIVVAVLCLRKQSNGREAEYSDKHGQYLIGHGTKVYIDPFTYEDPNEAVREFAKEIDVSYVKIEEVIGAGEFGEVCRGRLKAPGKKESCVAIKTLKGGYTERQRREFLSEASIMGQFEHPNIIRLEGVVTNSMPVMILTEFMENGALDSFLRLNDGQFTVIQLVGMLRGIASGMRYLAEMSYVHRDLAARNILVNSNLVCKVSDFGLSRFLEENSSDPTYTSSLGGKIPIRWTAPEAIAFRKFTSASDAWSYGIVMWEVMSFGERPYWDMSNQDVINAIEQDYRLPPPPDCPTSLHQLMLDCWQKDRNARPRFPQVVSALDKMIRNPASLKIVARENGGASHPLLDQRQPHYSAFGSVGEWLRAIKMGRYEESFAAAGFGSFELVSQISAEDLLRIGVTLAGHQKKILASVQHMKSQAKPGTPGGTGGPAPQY", "how_it_was_run": "as §1"}, "[16]": {"molecular_target": "T16, NEK6 (Homo sapiens, UniProt Q9HC98)", "T16 construct": "purchased Millipore, Inc. (KinaseProfiler service)", "how_it_was_run": "as §1"}, "[17]": {"molecular_target": "T17, Ret (Homo sapiens, UniProt P07949)", "T17 construct": "purchased Millipore, Inc. (KinaseProfiler service)", "how_it_was_run": "as §1"}, "[18]": {"molecular_target": "T18, CK1gamma2 (Homo sapiens, UniProt P78368)", "T18 construct": "purchased Millipore, Inc. (KinaseProfiler service)", "how_it_was_run": "as §1"}, "[19]": {"molecular_target": "T19, Flt3 (Homo sapiens, UniProt P36888)", "T19 construct": "purchased Millipore, Inc. (KinaseProfiler service)", "T19 sequence (P36888 27-993)": "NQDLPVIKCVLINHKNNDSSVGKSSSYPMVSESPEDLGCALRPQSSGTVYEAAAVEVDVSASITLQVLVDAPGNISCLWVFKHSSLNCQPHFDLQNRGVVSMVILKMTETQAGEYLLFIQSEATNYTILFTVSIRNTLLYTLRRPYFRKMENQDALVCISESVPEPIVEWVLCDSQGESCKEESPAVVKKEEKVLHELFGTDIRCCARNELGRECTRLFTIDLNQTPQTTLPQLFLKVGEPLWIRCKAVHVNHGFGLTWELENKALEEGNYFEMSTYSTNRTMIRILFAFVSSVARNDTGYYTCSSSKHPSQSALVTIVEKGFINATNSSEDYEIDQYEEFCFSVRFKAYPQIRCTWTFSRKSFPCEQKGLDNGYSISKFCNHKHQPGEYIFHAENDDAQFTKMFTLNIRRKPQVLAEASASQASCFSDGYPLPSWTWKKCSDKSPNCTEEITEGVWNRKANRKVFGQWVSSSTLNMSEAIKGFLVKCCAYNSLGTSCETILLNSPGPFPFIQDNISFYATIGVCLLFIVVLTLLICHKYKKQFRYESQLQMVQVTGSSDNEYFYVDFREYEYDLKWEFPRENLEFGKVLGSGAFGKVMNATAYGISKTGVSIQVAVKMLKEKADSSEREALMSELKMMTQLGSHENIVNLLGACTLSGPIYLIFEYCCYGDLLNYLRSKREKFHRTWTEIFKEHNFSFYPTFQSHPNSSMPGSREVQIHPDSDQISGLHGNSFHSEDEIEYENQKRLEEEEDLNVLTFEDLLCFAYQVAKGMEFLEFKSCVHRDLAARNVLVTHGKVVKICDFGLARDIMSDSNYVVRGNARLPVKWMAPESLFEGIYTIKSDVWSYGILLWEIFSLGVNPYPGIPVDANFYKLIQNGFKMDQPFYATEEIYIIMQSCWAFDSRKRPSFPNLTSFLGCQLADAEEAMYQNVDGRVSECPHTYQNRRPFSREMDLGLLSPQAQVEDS", "how_it_was_run": "as §1"}, "[20]": {"molecular_target": "T20, GRK7 (Homo sapiens, UniProt Q8WTQ7)", "T20 construct": "purchased Millipore, Inc. (KinaseProfiler service)", "how_it_was_run": "as §1"}, "[21]": {"molecular_target": "T21, TAK1 (Homo sapiens, UniProt O43318)", "T21 construct": "purchased Millipore, Inc. (KinaseProfiler service)", "how_it_was_run": "as §1"}, "[22]": {"molecular_target": "T22, DRAK1 (Homo sapiens, UniProt Q9UEE5)", "T22 construct": "purchased Millipore, Inc. (KinaseProfiler service)", "how_it_was_run": "as §1"}, "[23]": {"molecular_target": "T23, MST3 (Homo sapiens, UniProt Q9Y6E0)", "T23 construct": "purchased Millipore, Inc. (KinaseProfiler service)", "how_it_was_run": "as §1"}, "[24]": {"molecular_target": "T24, GSK3alpha (Homo sapiens, UniProt P49840)", "T24 construct": "purchased Millipore, Inc. (KinaseProfiler service)", "how_it_was_run": "as §1"}, "[25]": {"molecular_target": "T25, BrSK1 (Homo sapiens, UniProt Q8TDC3)", "T25 construct": "purchased Millipore, Inc. (KinaseProfiler service)", "how_it_was_run": "as §1"}, "[26]": {"molecular_target": "T26, Bmx (Homo sapiens, UniProt P51813)", "T26 construct": "purchased Millipore, Inc. (KinaseProfiler service)", "how_it_was_run": "as §1"}, "[27]": {"molecular_target": "T27, MAPKAP-K5 (Homo sapiens, UniProt Q8IW41)", "T27 construct": "purchased Millipore, Inc. (KinaseProfiler service)", "how_it_was_run": "as §1"}, "[28]": {"molecular_target": "T28, PRKG1beta (Homo sapiens, UniProt Q13976)", "T28 construct": "purchased Millipore, Inc. (KinaseProfiler service)", "how_it_was_run": "as §1"}, "[29]": {"molecular_target": "T29, CK1delta (Homo sapiens, UniProt P48730)", "T29 construct": "purchased Millipore, Inc. (KinaseProfiler service)", "how_it_was_run": "as §1"}, "[30]": {"molecular_target": "T30, MARK1 (Homo sapiens, UniProt Q9P0L2)", "T30 construct": "purchased Millipore, Inc. (KinaseProfiler service)", "how_it_was_run": "as §1"}, "[31]": {"molecular_target": "T31, PKD1 (Homo sapiens, UniProt Q15139)", "T31 construct": "purchased Millipore, Inc. (KinaseProfiler service)", "how_it_was_run": "as §1"}, "[32]": {"molecular_target": "T32, Txk (Homo sapiens, UniProt P42681)", "T32 construct": "purchased Millipore, Inc. (KinaseProfiler service)", "how_it_was_run": "as §1"}, "[33]": {"molecular_target": "T33, JNK3 (Homo sapiens, UniProt P53779)", "T33 construct": "purchased Millipore, Inc. (KinaseProfiler service)", "how_it_was_run": "as §1"}}}
{"compound": "COCc1ccc2cccc(NC(=O)Nc3c(C)c(-c4cnn(C)c4)nn3-c3ccccc3)c2c1", "note": "[Example 16, 1-(1′,4-dimethyl-1-phenyl-1H,1′H-[3,4′-bipyrazol]-5-yl)-3-(7-(methoxymethyl)naphthalen-1-yl)urea]", "values": [{"measurement": "Avg POC", "setting": "[1]", "value": 89.5, "unit": "POC"}, {"measurement": "Avg POC", "setting": "[2]", "value": 104.5, "unit": "POC"}, {"measurement": "Avg POC", "setting": "[3]", "value": 117.5, "unit": "POC"}, {"measurement": "Avg POC", "setting": "[4]", "value": 115.5, "unit": "POC"}, {"measurement": "Avg POC", "setting": "[5]", "value": 111.5, "unit": "POC"}, {"measurement": "Avg POC", "setting": "[6]", "value": 92, "unit": "POC"}, {"measurement": "Avg POC", "setting": "[7]", "value": 112.5, "unit": "POC"}, {"measurement": "Avg POC", "setting": "[8]", "value": 110, "unit": "POC"}, {"measurement": "Avg POC", "setting": "[9]", "value": 106, "unit": "POC"}, {"measurement": "Avg POC", "setting": "[10]", "value": 118, "unit": "POC"}, {"measurement": "Avg POC", "setting": "[11]", "value": 107, "unit": "POC"}, {"measurement": "Avg POC", "setting": "[12]", "value": 117.5, "unit": "POC"}, {"measurement": "Avg POC", "setting": "[13]", "value": 135.5, "unit": "POC"}, {"measurement": "Avg POC", "setting": "[14]", "value": 118.5, "unit": "POC"}, {"measurement": "Avg POC", "setting": "[15]", "value": 145.5, "unit": "POC"}, {"measurement": "Avg POC", "setting": "[16]", "value": 120, "unit": "POC"}, {"measurement": "Avg POC", "setting": "[17]", "value": 115, "unit": "POC"}, {"measurement": "Avg POC", "setting": "[18]", "value": 124.5, "unit": "POC"}, {"measurement": "Avg POC", "setting": "[19]", "value": 121.5, "unit": "POC"}, {"measurement": "Avg POC", "setting": "[20]", "value": 97, "unit": "POC"}, {"measurement": "Avg POC", "setting": "[21]", "value": 110.5, "unit": "POC"}, {"measurement": "Avg POC", "setting": "[22]", "value": 136, "unit": "POC"}, {"measurement": "Avg POC", "setting": "[23]", "value": 135, "unit": "POC"}, {"measurement": "Avg POC", "setting": "[24]", "value": 125, "unit": "POC"}, {"measurement": "Avg POC", "setting": "[25]", "value": 118, "unit": "POC"}, {"measurement": "Avg POC", "setting": "[26]", "value": 125, "unit": "POC"}, {"measurement": "Avg POC", "setting": "[27]", "value": 122.5, "unit": "POC"}, {"measurement": "Avg POC", "setting": "[28]", "value": 119, "unit": "POC"}, {"measurement": "Avg POC", "setting": "[29]", "value": 127.5, "unit": "POC"}, {"measurement": "Avg POC", "setting": "[30]", "value": 94.5, "unit": "POC"}, {"measurement": "Avg POC", "setting": "[31]", "value": 117.5, "unit": "POC"}, {"measurement": "Avg POC", "setting": "[32]", "value": 131, "unit": "POC"}, {"measurement": "Avg POC", "setting": "[33]", "value": 132, "unit": "POC"}]}
